The text below walks through data of patent publication US20100267561A1, “HERBICIDAL PYRIDAZINONE DERIVATIVES” (priority 2007, published 2010).

Data set [1] has as its system winter barley (HORVX, Hordeum vulgare). Nature of the data set: Test F mixtures with safener cloquintocet-mexyl, pre-/postemergence plant response. It is filed as in vivo. Particulars: applied alone.
Data set [2] relates to common ragweed (Ambrosia elation). Nature of the data set: Test E pre-/postemergence plant response. It counts as in vivo. Particulars: scale 0 to 100. The essentials: (§1)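 Ratings of 0 (no effect) through 100 (complete control) came from visual evaluation against untreated plants after a 14- to 21-day greenhouse period. Compound in a non-phytotoxic solvent/surfactant mixture was applied preemergence to seeds and postemergence to plants at the 1- to 4-leaf stage.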

The subject of data set [3] is field bindweed (Convolvulus arvensis). Nature of the data set: Test E pre-/postemergence plant response. It is filed as in vivo. To be noted: scale 0 to 100. Put shortly: as §1
The subject of data set [4] is Canada horseweed (Conyza canadensis). Description: Test E pre-/postemergence plant response. It counts as in vivo. To be noted: Postemergence, scale 0 to 100. Put shortly: as §1
Data set [5] relates to spanishneedles (Bidens bipinnata). Nature of the data set: Test E pre-/postemergence plant response. Particulars: scale 0 to 100. It is filed as in vivo. The essentials:
as §1

Data set [6] relates to winter barley (HORVX, Hordeum vulgare). Description: Test G mixtures of Compound 26 with crop safeners, postemergence plant response. It is filed as in vivo. Particulars: applied alone. As to the method: (§2) This test evaluated the effect of mixtures of Compound 26 with commercial crop safeners cloquintocet-mexyl, mefenpyr-diethyl, and fenchlorazole-ethyl on three plant species. Seeds of winter wheat (TRZAW, Triticum aestivum), winter barley (HORVX, Hordeum vulgare), and wild oat (AVEFA, Avena fatua) (a weed) were planted into a silt loam soil. Plants from these seeds were treated postemergence using test chemicals formulated in a non-phytotoxic solvent mixture that included a surfactant. Plants ranged in height from 6 to 10 cm (2- to 3-leaf stage).
(§3) Plants were grown in a greenhouse using supplemental lighting to maintain a photoperiod of about 14 hours; daytime and nighttime temperatures were about 22-26° C. and 15-19° C., respectively. Balanced fertilizer was applied through the watering system. Treatments consisted of Compound 26 and the above mentioned safeners alone and in combination using a spray volume of 281 L/ha. Each treatment was replicated four times. Treated plants and controls were maintained in a greenhouse for 15 days, after which time all treated plants were compared to controls and visually evaluated. Plant response ratings were calculated as the means of the four replicates based on a scale of 0 to 100 where 0 is no effect and 100 is complete control and are summarized in Tables G1 to G3. Because the safeners alone caused no injury at the rates tested, the expected effect of a mixture of Compound 26 with a safener is the same as the observed effect of Compound 26 alone.
(§4) The highest application rate of each safener was tested alone to confirm the absence of herbicidal activity on the test species when appled postemergence at 125 g ai/ha. Therefore, an extrapolated result of zero for each safener alone at 16, 31, or 62 g ai/ha was used to calculate the mixture response of Compound 26 and these safener application rates.

The test system of data set [7] is wild oat (AVEFA, Avena fatua). Described as above. To be noted: applied alone. It counts as in vivo. As for the experimental part: as §2, §3, §4
The test system of data set [8] is winter wheat (TRZAW, Triticum aestivum). Described as above. It is filed as in vivo. To be noted: applied alone. As for the experimental part: as §2, §3, §4

For the compound “4-[3-(4-chlorophenyl)-5-methyl-1H-pyrazol-3-yl]-5-hydroxy-2-methyl-3(2H)-pyridazinone [Compound 3]”, the “HORVX Obsd. (observed effect) plant response rating, scale 0 to 100” value in [1] (postemergence, 4 g a.i./ha) was 0; in data set [1] (postemergence, 8 g a.i./ha), 0; in data set [1] (postemergence, 16 g a.i./ha), 15; in data set [1] (preemergence, 4 g a.i./ha) it was 10; in data set [1] (preemergence, 8 g a.i./ha) it was 32; in data set [1] (preemergence, 16 g a.i./ha), 68.

`CCc1cc(-c2ccc(C(F)(F)F)cc2)nn1-c1c(O)cnn(C)c1=O` [Compound 11, 4-[5-ethyl-3-[4-(trifluoromethyl)phenyl]-1H-pyrazol-1-yl]-5-hydroxy-2-methyl-3(2H)-pyridazinone]: the melting point lay in the range of 202 to 204 °C. The “Plant response rating, Ragweed” value in data set [2] (4 g ai/ha, Postemergence) is 0. Moreover, the “Plant response rating, Ragweed” value in data set [2] (16 g ai/ha, Preemergence) came to 0. Also, the “Plant response rating, Ragweed” value in data set [2] (31 g ai/ha, Preemergence) is reported as 0. For the same compound, in [2] (Postemergence, 8 g ai/ha), the “Plant response rating, Ragweed” value was determined as 0. Moreover, in data set [2] (Postemergence, 16 g ai/ha), the “Plant response rating, Ragweed” value was determined as 0. Also, the “Plant response rating, Ragweed” value in data set [2] (Postemergence, 31 g ai/ha) is reported as 0. Further, in [2] (Preemergence, 4 g ai/ha), the “Plant response rating, Ragweed” value stood at 0. Besides, in [3] (4 g ai/ha, Postemergence), the “Plant response rating, Field Bindweed” value came out at 0. Also, the “Plant response rating, Field Bindweed” value in [3] (8 g ai/ha, Preemergence) worked out at 0. In addition, the “Plant response rating, Field Bindweed” value in data set [3] (16 g ai/ha, Preemergence) is on record as 0. For the same compound, the “Plant response rating, Field Bindweed” value in [3] (31 g ai/ha, Preemergence) was determined as 0. In addition, the “Plant response rating, Field Bindweed” value in data set [3] (Postemergence, 8 g ai/ha) was determined as 0. Also, the “Plant response rating, Field Bindweed” value in data set [3] (Postemergence, 16 g ai/ha) came to 0. Besides, the “Plant response rating, Field Bindweed” value in data set [3] (Postemergence, 31 g ai/ha) is 0. The “Plant response rating, Field Bindweed” value in data set [3] (Preemergence, 4 g ai/ha) came out at 0. In [4] (4 g ai/ha), the “Plant response rating, Horseweed” value is 0. Further, the “Plant response rating, Horseweed” value in data set [4] (8 g ai/ha) was found to be 0. Further, the “Plant response rating, Horseweed” value in data set [4] (16 g ai/ha) is reported as 0. The “Plant response rating, Horseweed” value in [4] (31 g ai/ha) was 0. For the same compound, the “Plant response rating, Spanishneedles” value in [5] (4 g ai/ha, Postemergence) turned out to be 0. In addition, the “Plant response rating, Spanishneedles” value in data set [5] (16 g ai/ha, Preemergence) was 0. Further, the “Plant response rating, Spanishneedles” value in data set [5] (31 g ai/ha, Preemergence) came out at 0. Also, the “Plant response rating, Spanishneedles” value in data set [5] (Postemergence, 8 g ai/ha) stood at 0. Also, the “Plant response rating, Spanishneedles” value in [5] (Postemergence, 16 g ai/ha) is 0. Besides, the “Plant response rating, Spanishneedles” value in [5] (Postemergence, 31 g ai/ha) was 0. Also, the “Plant response rating, Spanishneedles” value in [5] (Preemergence, 4 g ai/ha) was found to be 0. Also, in data set [1] (postemergence, 4 g a.i./ha), the “HORVX Obsd. (observed effect) plant response rating, scale 0 to 100” value was 5. The “HORVX Obsd. (observed effect) plant response rating, scale 0 to 100” value in [1] (postemergence, 8 g a.i./ha) is listed as 55. Moreover, the “HORVX Obsd. (observed effect) plant response rating, scale 0 to 100” value in data set [1] (postemergence, 16 g a.i./ha) is listed as 90. Besides, the “HORVX Obsd. (observed effect) plant response rating, scale 0 to 100” value in [1] (preemergence, 4 g a.i./ha) was 22. Further, the “HORVX Obsd. (observed effect) plant response rating, scale 0 to 100” value in [1] (preemergence, 8 g a.i./ha) was 70. Moreover, the “HORVX Obsd. (observed effect) plant response rating, scale 0 to 100” value in [1] (preemergence, 16 g a.i./ha) was 92.

Consider `CCc1cc(-c2ccc(C(F)(F)F)cc2)nn1-c1c(OS(C)(=O)=O)cnn(C)c1=O` [Compound 19], for which the “Plant response rating, Ragweed” value turned out to be 0 in [2] (4 g ai/ha, Postemergence); 0 in [2] (16 g ai/ha, Preemergence); 0 in [2] (31 g ai/ha, Preemergence); 0 in data set [2] (Postemergence, 8 g ai/ha); 0 in data set [2] (Postemergence, 16 g ai/ha); 0 in [2] (Postemergence, 31 g ai/ha). In addition, the “Plant response rating, Ragweed” value in [2] (Preemergence, 4 g ai/ha) worked out at 0. Further, the “Plant response rating, Field Bindweed” value in data set [3] (4 g ai/ha, Postemergence) is recorded as 0; in data set [3] (8 g ai/ha, Preemergence) it was 0; in [3] (16 g ai/ha, Preemergence), 0; in data set [3] (31 g ai/ha, Preemergence), 0; in [3] (Postemergence, 8 g ai/ha), 0; in [3] (Postemergence, 16 g ai/ha) it was 0. Moreover, the “Plant response rating, Field Bindweed” value in data set [3] (Postemergence, 31 g ai/ha) turned out to be 0; in [3] (Preemergence, 4 g ai/ha) it was 0. For the same compound, the “Plant response rating, Horseweed” value in data set [4] (4 g ai/ha), in [4] (8 g ai/ha), in [4] (16 g ai/ha) and in [4] (31 g ai/ha) was 0 throughout. Besides, the “Plant response rating, Spanishneedles” value in data set [5] (4 g ai/ha, Postemergence) is reported as 0; in [5] (16 g ai/ha, Preemergence) it was 0; in [5] (31 g ai/ha, Preemergence), 0; in data set [5] (Postemergence, 8 g ai/ha) it was 0; in data set [5] (Postemergence, 16 g ai/ha) it was 0; in data set [5] (Preemergence, 4 g ai/ha) it was 0.

`CCc1c(C)c(-c2ccc(Cl)cc2)nn1-c1c(O)cnn(C)c1=O` [Compound 26, 4-[3-(4-chlorophenyl)-5-ethyl-4-methyl-1H-pyrazol-1-yl]-5-hydroxy-2-methyl-3(2H)-pyridazinone] displayed a melting point of 227 to 229 °C. In addition, the “HORVX Obsd. (observed effect) plant response rating, scale 0 to 100” value in [6] (62 g a.i./ha) is 19. Besides, the “HORVX Obsd. (observed effect) plant response rating, scale 0 to 100” value in data set [6] (125 g a.i./ha) was 34. The “HORVX Obsd. (observed effect) plant response rating, scale 0 to 100” value in data set [6] (250 g a.i./ha) is on record as 45. Further, the “AVEFA Obsd. (observed effect) plant response rating, scale 0 to 100” value in data set [7] (62 g a.i./ha) was found to be 89. Also, in data set [7] (125 g a.i./ha), the “AVEFA Obsd. (observed effect) plant response rating, scale 0 to 100” value is 97. Moreover, the “AVEFA Obsd. (observed effect) plant response rating, scale 0 to 100” value in data set [7] (250 g a.i./ha) amounted to 99. Also, the “TRZAW Obsd. (observed effect) plant response rating, scale 0 to 100” value in data set [8] (62 g a.i./ha) amounted to 10. For the same compound, the “TRZAW Obsd. (observed effect) plant response rating, scale 0 to 100” value in [8] (125 g a.i./ha) was 9. The “TRZAW Obsd. (observed effect) plant response rating, scale 0 to 100” value in data set [8] (250 g a.i./ha) is recorded as 36.
